The values below come from patent publication US20090011400A1, “Substrate switched ammonia lyases and mutases” (The Salk Institute for Biological Studies and The Regents …, priority 2006, published 2009).

Data set [1] addresses T1, Rhodobacter sphaeroides tyrosine ammonia lyase (RsTAL), wild type (Cereibacter sphaeroides, UniProt Q3IWB0).
T1 construct: octahistidine (His8), thrombin-cleavable (N, cleaved yes); made in house; host or cells: E. coli BL21(DE3)
T1 sequence (Q3IWB0 1-523): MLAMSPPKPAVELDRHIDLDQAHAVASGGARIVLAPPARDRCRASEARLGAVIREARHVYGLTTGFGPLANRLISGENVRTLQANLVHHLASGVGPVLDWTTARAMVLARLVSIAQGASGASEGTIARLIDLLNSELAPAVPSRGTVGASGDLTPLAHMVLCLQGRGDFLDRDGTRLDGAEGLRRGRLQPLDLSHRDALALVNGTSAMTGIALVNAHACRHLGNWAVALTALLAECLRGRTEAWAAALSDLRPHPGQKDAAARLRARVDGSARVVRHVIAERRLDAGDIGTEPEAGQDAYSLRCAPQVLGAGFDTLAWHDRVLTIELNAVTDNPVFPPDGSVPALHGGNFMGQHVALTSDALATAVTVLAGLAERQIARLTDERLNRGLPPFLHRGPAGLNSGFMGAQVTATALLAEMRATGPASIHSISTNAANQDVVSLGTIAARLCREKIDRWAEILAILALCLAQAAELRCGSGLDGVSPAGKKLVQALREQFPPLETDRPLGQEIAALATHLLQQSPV
Briefly: Ammonia lyase steady-state kinetics, wild type RsTAL. The format is biochemical. The conditions noted are these: wt RsTAL. The protocol:
(§1) TAL activity was measured spectrophotometrically by monitoring the formation of a conjugated aryl-acid product. The conversion of L-Tyr to p-coumarate was followed at 310 nm and L-Phe to cinnamate at 280 nm. The assay mixture (total volume 0.5 ml) contained 0.1 M Tris HCl (pH 8.5), and for each fixed amount of TAL, eight different initial concentrations of amino acid substrate. After pre-incubation of the enzyme at 37° C. for 2 min, reactions were initiated by the addition of substrate, and formation of product was monitored for 5 min. For wild type RsTAL, activity was assayed with 7.5 μg protein and initial L-Tyr concentrations between 0.01 and 2.4 mM, and PAL activity was assayed with 30 μg protein and initial L-Phe concentrations between 3.2 and 51.2 mM. For the RsTAL H89F mutant, PAL activity was assayed with 10 μg protein and initial L-Phe concentrations between 0.05 and 5.2 mM. Each series of assays were performed in triplicate, and a Hanes plot was used for the estimation of steady-state kinetic constants.

Data set [2] deals with PlPAL (Photorhabdus luminescens phenylalanine ammonia lyase). The conditions noted are these: cited from earlier work.
Data set [3] concerns PcPAL (Petroselinum crispum phenylalanine ammonia lyase). The following applies: cited from earlier work.
For data set [4], the system named is SeTAL (Saccharothrix espanaensis tyrosine ammonia lyase). The following applies: cited from earlier work.
The subject of data set [5] is SmPAL (Streptomyces maritimus phenylalanine ammonia lyase). The conditions noted are these: cited from earlier work.
The subject of data set [6] is RcTAL (Rhodobacter capsulatus tyrosine ammonia lyase). The following applies: cited from earlier work.
In data set [7] the test system is ZmPAL (Z. mays phenylalanine ammonia lyase). The conditions noted are these: cited from earlier work.
For data set [8], the target named is T2, Rhodobacter sphaeroides tyrosine ammonia lyase (RsTAL) variant H89F (His89Phe) (Cereibacter sphaeroides, UniProt Q3IWB0, H89F).
T2 sequence (Q3IWB0 1-523 H89F): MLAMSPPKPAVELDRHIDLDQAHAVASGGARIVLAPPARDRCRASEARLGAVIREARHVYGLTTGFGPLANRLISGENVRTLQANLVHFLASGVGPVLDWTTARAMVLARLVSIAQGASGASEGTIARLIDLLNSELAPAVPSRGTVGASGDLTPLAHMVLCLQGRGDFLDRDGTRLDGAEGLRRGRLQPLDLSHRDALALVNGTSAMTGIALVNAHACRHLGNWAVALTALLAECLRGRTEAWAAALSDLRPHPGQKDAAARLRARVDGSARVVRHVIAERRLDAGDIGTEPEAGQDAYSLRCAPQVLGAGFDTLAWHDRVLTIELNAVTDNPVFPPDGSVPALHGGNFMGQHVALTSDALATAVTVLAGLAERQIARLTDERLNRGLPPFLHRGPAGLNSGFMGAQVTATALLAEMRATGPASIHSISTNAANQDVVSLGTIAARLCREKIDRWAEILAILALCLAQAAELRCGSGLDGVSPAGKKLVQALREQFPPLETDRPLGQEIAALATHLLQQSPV
Kind of data set: Ammonia lyase steady-state kinetics, H89F RsTAL.
Procedure: (§2) TAL activity was measured spectrophotometrically by monitoring the formation of a conjugated aryl-acid product. The conversion of L-Tyr to p-coumarate was followed at 310 nm and L-Phe to cinnamate at 280 nm. The assay mixture (total volume 0.5 ml) contained 0.1 M Tris HCl (pH 8.5), and for each fixed amount of TAL, eight different initial concentrations of amino acid substrate. After pre-incubation of the enzyme at 37° C. for 2 min, reactions were initiated by the addition of substrate, and formation of product was monitored for 5 min. […] For the RsTAL H89F mutant, PAL activity was assayed with 10 μg protein and initial L-Phe concentrations between 0.05 and 5.2 mM. Each series of assays were performed in triplicate, and a Hanes plot was used for the estimation of steady-state kinetic constants.

Data set [9] has as its target T3, RsTAL (Cereibacter sphaeroides, UniProt Q3IWB0).
T3 construct: His8 (octahistidine), thrombin-cleavable (N, cleaved yes); made in house; host or cells: E. coli BL21(DE3)
T3 sequence (Q3IWB0 1-523): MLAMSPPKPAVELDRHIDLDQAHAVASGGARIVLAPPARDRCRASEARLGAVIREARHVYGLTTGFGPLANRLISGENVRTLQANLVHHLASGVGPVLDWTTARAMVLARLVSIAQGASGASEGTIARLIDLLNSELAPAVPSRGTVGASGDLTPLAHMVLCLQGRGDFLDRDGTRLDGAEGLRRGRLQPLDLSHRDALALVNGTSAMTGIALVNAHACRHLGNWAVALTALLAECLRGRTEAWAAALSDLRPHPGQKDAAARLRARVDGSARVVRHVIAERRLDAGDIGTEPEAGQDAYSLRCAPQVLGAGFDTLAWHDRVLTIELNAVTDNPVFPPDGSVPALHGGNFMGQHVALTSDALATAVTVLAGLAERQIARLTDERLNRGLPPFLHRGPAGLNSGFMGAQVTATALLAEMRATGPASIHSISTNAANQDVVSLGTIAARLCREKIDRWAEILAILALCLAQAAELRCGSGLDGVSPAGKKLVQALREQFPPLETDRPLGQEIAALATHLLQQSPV
Briefly: Crystal soaking experiments of RsTAL with ligands. The following applies: wild type RsTAL crystals soaked with ligand. Format: binding, Rhodobacter sphaeroides. The protocol:
Monoclinic crystals of RsTAL (space group […]) were grown from a 1:1 mixture of protein solution (20 mg/ml in 12.5 mM Tris-HCl, pH 7.5, 50 mM NaCl) and a reservoir solution (0.1 M MOPSO—Na^+, pH 7.0, 7% (w/v) polyethylene glycol 8000, 0.3 M ammonium acetate, 2 mM dithiothreitol, 35 mM cyclohexylbutanoyl-N-hydroxyethylglucamide) using vapor diffusion against reservoir solutions at 4° C. Crystal growth typically occurred over a period of one to three weeks and was expedited through microseeding. […] Crystals of RsTAL in complex with small molecule ligands were produced by soaking crystals for 24-48 hrs in reservoir solutions supplemented with 10-20 mM coumaric acid, caffeic acid, cinnamic acid or AIP.

Substrate in data set [10]: N[C@@H](Cc1ccccc1)C(=O)O
Briefly: purified protein, by the assay type. The conditions noted are these: other: H89F RsTAL, pH 8.5, 37° C.
Procedure: as §2

Substrate in data set [11]: N[C@@H](Cc1ccc(O)cc1)C(=O)O
Kind of data set: Ammonia lyase steady-state kinetics, wild type RsTAL. Format: biochemical, Rhodobacter sphaeroides. The following applies: other: wt RsTAL, pH 8.5, 37° C. The protocol: as §1

Substrate in data set [12]: N[C@@H](Cc1ccccc1)C(=O)O
Described as above. The format is biochemical, Rhodobacter sphaeroides. The conditions noted are these: other: wt RsTAL, pH 8.5, 37° C. The protocol: as §1

Data set [13] can be described thus: PAL activity: spectrophotometric steady-state kinetics, L-Phe to cinnamate. The conditions noted are these: substrate L-Phe. The format is biochemical. The protocol:
as §1

Regarding `N[C@@H](Cc1ccc(O)c(O)c1)C(=O)O` [L-DOPA, L-3,4-dihydroxyphenylalanine], the “activity with L-DOPA” value in data set [1] (deamination) is listed as “significant activity”.
As to `N[C@@H](Cc1ccccc1)C(=O)O` [L-Phe], the Km in data set [2] was 320 µM; in [3], 17.2 µM; in data set [4] it was 2860 µM; in [5], 23 µM; in [6], 1280 µM; in [7] it was 270 µM. In addition, the kcat in [2] is 0.8 s⁻¹; in data set [3], 22 s⁻¹; in data set [4] it was 0.0038 s⁻¹; in [5] it was 0.0048 s⁻¹; in data set [6], 15.1 s⁻¹; in [7], 10 s⁻¹. Besides, in data set [8] (pH 8.5, 37° C.), the kcat was found to be 8.15 s⁻¹.
For the molecule `N[C@@H](Cc1ccc(O)cc1)C(=O)O` [L-Tyr], the Km was 2500 µM in data set [3], 15.5 µM in data set [4], 15.6 µM in data set [6] and 19 µM in data set [7]. For the same molecule, the kcat was 0.3 s⁻¹ in data set [3]; 0.015 s⁻¹ in [4]; 27.7 s⁻¹ in [6]; 0.9 s⁻¹ in data set [7]; 4.32 s⁻¹ in data set [1] (pH 8.5, 37° C.). Moreover, the “Km better for L-Tyr as compared to L-Phe” value in data set [1] (L-Tyr vs L-Phe) was found to be 150 fold. The “activity with L-Tyr” value in [8] is “lacks activity”.
Regarding `O=C(O)C=Cc1ccccc1` [cinnamic acid], the “binding observed in RsTAL crystals (in words)” value in [9] is listed as “no significant binding”.

B1: Rhodobacter sphaeroides tyrosine ammonia lyase (RsTAL) variant H89F (His89Phe) (Cereibacter sphaeroides 2.4.1; H89F) (protein)
chain: MLAMSPPKPAVELDRHIDLDQAHAVASGGARIVLAPPARDRCRASEARLGAVIREARHVYGLTTGFGPLANRLISGENVRTLQANLVHFLASGVGPVLDWTTARAMVLARLVSIAQGASGASEGTIARLIDLLNSELAPAVPSRGTVGASGDLTPLAHMVLCLQGRGDFLDRDGTRLDGAEGLRRGRLQPLDLSHRDALALVNGTSAMTGIALVNAHACRHLGNWAVALTALLAECLRGRTEAWAAALSDLRPHPGQKDAAARLRARVDGSARVVRHVIAERRLDAGDIGTEPEAGQDAYSLRCAPQVLGAGFDTLAWHDRVLTIELNAVTDNPVFPPDGSVPALHGGNFMGQHVALTSDALATAVTVLAGLAERQIARLTDERLNRGLPPFLHRGPAGLNSGFMGAQVTATALLAEMRATGPASIHSISTNAANQDVVSLGTIAARLCREKIDRWAEILAILALCLAQAAELRCGSGLDGVSPAGKKLVQALREQFPPLETDRPLGQEIAALATHLLQQSPV
As for B1, in data set [10], the Km was found to be 434 µM.

B2: Rhodobacter sphaeroides tyrosine ammonia lyase (RsTAL), wild type (Cereibacter sphaeroides 2.4.1) (protein)
chain: MLAMSPPKPAVELDRHIDLDQAHAVASGGARIVLAPPARDRCRASEARLGAVIREARHVYGLTTGFGPLANRLISGENVRTLQANLVHHLASGVGPVLDWTTARAMVLARLVSIAQGASGASEGTIARLIDLLNSELAPAVPSRGTVGASGDLTPLAHMVLCLQGRGDFLDRDGTRLDGAEGLRRGRLQPLDLSHRDALALVNGTSAMTGIALVNAHACRHLGNWAVALTALLAECLRGRTEAWAAALSDLRPHPGQKDAAARLRARVDGSARVVRHVIAERRLDAGDIGTEPEAGQDAYSLRCAPQVLGAGFDTLAWHDRVLTIELNAVTDNPVFPPDGSVPALHGGNFMGQHVALTSDALATAVTVLAGLAERQIARLTDERLNRGLPPFLHRGPAGLNSGFMGAQVTATALLAEMRATGPASIHSISTNAANQDVVSLGTIAARLCREKIDRWAEILAILALCLAQAAELRCGSGLDGVSPAGKKLVQALREQFPPLETDRPLGQEIAALATHLLQQSPV
notes: octahistidine (His8), thrombin-cleavable (N, cleaved yes); made in house; host or cells: E. coli BL21(DE3)
With B2, the Km in [11] is 74.2 µM. Besides, in [12], the Km amounted to 11400 µM, the catalytic constant (kcat) was found to be 13.1 s⁻¹ and the kcat/Km worked out at 1100 M⁻¹ s⁻¹.

B3: H89F RsTAL: engineered RsTAL variant with the single amino acid substitution H89F (His 89 replaced by Phe) (protein)
chain: MLAMSPPKPAVELDRHIDLDQAHAVASGGARIVLAPPARDRCRASEARLGAVIREARHVYGLTTGFGPLANRLISGENVRTLQANLVHFLASGVGPVLDWTTARAMVLARLVSIAQGASGASEGTIARLIDLLNSELAPAVPSRGTVGASGDLTPLAHMVLCLQGRGDFLDRDGTRLDGAEGLRRGRLQPLDLSHRDALALVNGTSAMTGIALVNAHACRHLGNWAVALTALLAECLRGRTEAWAAALSDLRPHPGQKDAAARLRARVDGSARVVRHVIAERRLDAGDIGTEPEAGQDAYSLRCAPQVLGAGFDTLAWHDRVLTIELNAVTDNPVFPPDGSVPALHGGNFMGQHVALTSDALATAVTVLAGLAERQIARLTDERLNRGLPPFLHRGPAGLNSGFMGAQVTATALLAEMRATGPASIHSISTNAANQDVVSLGTIAARLCREKIDRWAEILAILALCLAQAAELRCGSGLDGVSPAGKKLVQALREQFPPLETDRPLGQEIAALATHLLQQSPV
modifications: H89F mutant of Rhodobacter sphaeroides tyrosine ammonia lyase
Turning to B3, the “increase in kcat/Km in comparison to wild type RsTAL” value in data set [13] turned out to be 17 fold.
